Consider one compound from PMC3769651 (Scientific Reports, 2013).

The target of the assay is vchNADK (Vibrio cholerae, UniProt Q9KTP8, K2E/N76T).

For the compound `NC(=O)c1ccc[n+]([C@@H]2O[C@H](COP(=O)(O)OP(=O)(O)OC[C@H]3O[C@@H](n4cnc5c(N)ncnc54)[C@H](OP(=O)(O)O)[C@@H]3O)[C@@H](O)[C@H]2O)c1` [NADP^+], the “% residual activity at 0.20 mM” value was determined as 39%.
